Data taken from US20240173456A1, “THERAPEUTIC COMPOSITIONS FOR WOUND TREATMENT” (GlycoSurf, Inc., priority 2022, published 2024).

Legend:
[1] = tested on: neonatal human dermal fibroblast (hDFn) cells; assay: Cellular migration assay (scratch, mock wound), with or without uranyl nitrate (depleted uranium) exposure; format: cell-based
Method: Preparation of Depleted Uranium Solution. Approximately 0.005 g of uranyl nitrate (UN) crystals, purchased from American Scientific were weighed and solubilized in 40 mL of Dulbecco's modified eagle medium (DMEM) containing 10% fetal bovine serum (FBS) (DMEM complete) from Gibco® to create an initial working stock solution. Uranyl nitrate stock underwent 60 seconds of pipette mixing to confirm proper disintegration prior to vacuum sterilization using a 0.22 μm filter. Molecular weight was used to calculate the appropriate starting molarity before utilizing weight-volume concentrations to obtain the following experimental dilutions: 0.1 μM, 0.2 μM, 1.0 μM, 2.0 μM, 10 μM, 20 μM made from the sterile-filtered stock solution.
Cell Culture of Neonatal Human Dermal Fibroblasts (hDFn). Passage one neonatal human dermal fibroblast (hDFn) cells were purchased from Cell Applications, Inc. (P1, lot #1734). The hDFn cells were incubated at 37° C., 5% CO2, and passaged using a T-75 tissue culture flask from Corning, completing media changes every 48 hours until 90% confluency was met. Cells were subcultured at a density of 10×10^5 cells/mL, frozen in DMEM containing 10% DMSO, and stored at −80° C. for 24 hours before being placed in liquid nitrogen vapor phase for long-term preservation. The subsequent process was repeated until passage 4 isolates were frozen down.
Rhamnolipid Solution. About 0.0125 g of rhamnolipids (Rha-C10-C10) from Glycosurf were weighed and diluted in 50 mL of 1× phosphate-buffered saline (PBS) to obtain a 200 μM rhamnolipid stock solution. The solution was heated prior to being vortexed for maximum dissolution and sterilized through a vacuum using a 0.22 μm filter. The molarity of rhamnolipid stock solution was found using actual mass ([…]) and molecular weight to calculate experiment dilutions of 6.25 μM, 50 μM, and 100 μM.
Cellular Migration Assay. Human neonatal dermal fibroblasts (hDFn) passage 4, were seeded into a T-75 flask at 10×10^5 cells/mL density and grown in a standing incubator at 37° C., 5% CO2. Once 90% confluence was reached, hDFn were subcultured into 12-well plates, and respective UN treatments with or without rhamnolipids were added. After 24 hours, contents were removed, and the monolayer of fibroblasts was scratched vertically using a sterile pipet tip creating the mock wound (FIG. 1). Wells were then washed twice with Hanks' Balanced Salt Solution (HBSS). Respective treatments were added back into wells and cellular migration rates were monitored and imaged over time (0 hours, 12 hours, and 24 hours). Percent closure rates were collected using MATLAB®.
(§1) Statistical Analysis. Statistically significant differences were determined using GraphPad Prism. The results of the cellular migration assay were analyzed with a one-way ANOVA and Tukey post hoc evaluation. The PBCQ assay was analyzed using a one-way ANOVA and Tukey post hoc evaluation. For all experiments, a p-value<0.05 was considered statistically significant in this study.

hDFn cells [2] = assay: PrestoBlue assay, metabolic activity; format: cell-based, human; conditions: vs control
Method: (§2) PrestoBlue™ and CyQUANT™ Direct Assay. PrestoBlue™ and CyQuant™ (PBCQ) direct confirmation assay (from ThermoFisher®) for cell viability was used to assess the biocompatibility of hDFn cells in DMEM complete media with varying concentrations of rhamnolipids. Passage 5 hDFn cells were seeded at 11,200 cells/mL density into black wall, clear bottom 96-well tissue culture plates. The cells were placed inside the standing incubator at 37° C. and 5% CO2 until reaching 70-90% confluence. […] The plate layout included blank wells containing DMEM complete media and the corresponding rhamnolipid concentrations. Following 24 hours, 100 μL was removed from each well and replaced with 10 μL of the PrestoBlue reagent. The plates were then incubated for 20 minutes at 37° C. and 5% CO2 prior to being placed in the Biotek® Synergy HT fluorescence microplate reader at 590 nm with a gain value of 35. Afterward, 100 μL of the CyQuant reagent composition was added to all wells and incubated for 60 minutes. The plates were read using the same microplate reader at 528 nm with a gain of 70. The relative fluorescence units (RFU) were produced for all wells, correlating with the metabolic output per unit of DNA.
as §1
(§3) The control scaffold, the SEM image of which is shown in FIG. 5A, was not impregnated with rhamnolipids, or had hDFn cells seeded onto it. In particular, the observable porosity is not structurally different in FIG. 5A compared to the other images (FIGS. 5B-5E) depicting impregnated scaffolds without cells. As the percentage of rhamnolipids increased, the porosity of the scaffold remained relatively similar to the control. […] Visually, the hDFn cells appeared to have been able to adhere and colonize onto impregnated scaffolds which could be further explored to better understand the cytocompatibility of rhamnolipids and if their morphology is influenced by the concentration of the surfactant. PrestoBlue™ and CyQUANT™ Direct Assay. The PrestoBlue™ and CyQUANT™ Direct assays were used to determine the cellular compatibility of hDFn cells when in the presence of rhamnolipids. The PrestoBlue™ assay is a resazurin-based solution when upon entering a living cell, the reagent is reduced to resorufin which is red in color and fluorescent. The overall health of the cell can be observed by changes in fluorescence and subsequently absorbance. […] The CyQUANT™ Direct assay is a cell-permeant green nucleic acid stain that is combined with a masking dye reagent. The masking dye stops the staining of non-viable cells or cells with compromised cell membranes, resulting in only the viable cells being stained. The CyQUANT™ Direct assay measures proliferation as well as membrane integrity. The data was evaluated using GraphPad Prism to run a one-way ANOVA.

hDFn cells [3] = assay: CyQUANT Direct assay, DNA content of living cells; format: cell-based, human; conditions: vs control
Method: as §2, §1, §3

[4] = tested on: Human dermal neonatal fibroblasts (hDFn); assay: Rhamnolipid vs. thioglycolipid comparative scratch assay; format: cell-based; conditions: 6.25-50 μM, over 24 hours, particularly at the 4-hour and 8-hour time marks, FIGS. 9, 10A-10B
Method: Rhamnolipid vs. Thioglycolipid Comparative Scratch Assays. Human dermal neonatal fibroblasts (hDFn) were seeded in 3×12-well plates at 10,000 cell/cm^2. Media (Dulbecco's Modified Eagle Medium (DMEM)) was changed every 48 hours. Plates were imaged every 4 hours for 24 hours. Plates were analyzed via MATLAB® and RStudio®.

CCCCCCC[C@H](CC(=O)O)OC(=O)C[C@@H](CCCCCCC)O[C@@H]1O[C@@H](C)[C@H](O)[C@@H](O)[C@H]1O [rhamnolipids, Rha-C10-C10]
mean percent closure ([1]; 24 hours post-wound, across the different treatments (considered closed)): no statistically significant difference
cellular migration (percent closure) ([1]; absence of UN, high dose of rhamnolipids (50 μM), 12 hours post-wound, vs control, Tukey's p=0.001): statistically significant increase
mean percent closure ([1]; absence of UN, low concentration of rhamnolipids (6.25 μM), vs control): no statistically significant difference
percent closure (migration rate) ([1]; hDFn exposed to 0.1 μM UN + 50 μM rhamnolipids, 12 hours post-wound, vs control, p-value=0.021): statistically significant increase
percent closure (migration rate) ([1]; hDFn exposed to 1.0 μM UN + 6.25 μM rhamnolipids, 12 hours post-wound, p-value=0.012): statistically significant increase
percent closure (migration rate) ([1]; hDFn exposed to 1.0 μM UN + 50 μM rhamnolipids, 12 hours post-wound, vs control, p-value<0.001): statistically significant increase
percent closure (migration rate) ([1]; hDFn exposed to 10 μM UN + 50 μM rhamnolipids, 12 hours post-wound, vs control, p-value=0.009): statistically significant increase
metabolic activity (RFU) (hDFn cells [2]; 6.25 μM rhamnolipids, 24 hours, n=6 (FIG. 7A), Tukey's p<0.001): statistically significant increase
metabolic activity (RFU) (hDFn cells [2]; 6.25 μM rhamnolipids, n=12 (FIG. 8A), Tukey's p<0.001): statistically significant increase
metabolic activity (RFU) (hDFn cells [2]; 50 μM rhamnolipids, 24 hours, n=6 (FIG. 7A), Tukey's p<0.001): statistically significant increase
metabolic activity (RFU) (hDFn cells [2]; 50 μM rhamnolipids, n=12 (FIG. 8A), Tukey's p<0.001): statistically significant increase
metabolic activity (RFU) (hDFn cells [2]; maximum concentration of rhamnolipids (100 μM), n=12 (FIG. 8A)): statistically significant decrease
cellular DNA content (RFU) (hDFn cells [3]; 100 μM rhamnolipids, n=12 (FIG. 8B)): statistically significant decrease
living DNA content (RFU) (hDFn cells [3]; high concentration of rhamnolipids (50 μM), 24 hours, n=6 (FIG. 7B)): no statistically significant difference
living DNA content (RFU) (hDFn cells [3]; high concentration of rhamnolipids (50 μM), n=12 (FIG. 8B)): no statistically significant difference
cellular DNA content (RFU) (hDFn cells [3]; low concentration of rhamnolipids (6.25 μM), 24 hours, n=6 (FIG. 7B), Tukey's p<0.001): statistically significant increase
living DNA content (RFU) (hDFn cells [3]; low concentration of rhamnolipids (6.25 μM), n=12 (FIG. 8B)): no statistically significant difference
wound healing (percent closure) compared with thioglycolipid compositions [4]: faster healing
